Test results: the NIST ThermoML archive (doi:10.1007/s10765-010-0860-3)

Columns and labels:
[1] = 101 kPa, Liquid; for viscosity: Capillary tube (Ostwald / Ubbelohde) method; for mass density: Pycnometric method
[2] = xn = mol fraction of the nth substance listed; conditions: 101 kPa, Liquid; for viscosity: Capillary tube (Ostwald / Ubbelohde) method; for mass density: Pycnometric method

C1COCCO1 [1,4-dioxane]
[1]
Conditions	mass density [kg/m3]	viscosity [mPa·s]
288.15 K	1039.1	1.44
298.15 K	1027.92	1.185
308.15 K	1016.55	1.029

C1COCCO1 [1,4-dioxane] + CC1COC(=O)O1
[2], x2 = 0
Conditions	mass density [kg/m3]	viscosity [mPa·s]
288.15 K	1039.1	1.44
298.15 K	1027.92	1.185
308.15 K	1016.55	1.029

CC(=O)CC(C)=O [2,4-pentanedione]
[1]
Conditions	mass density [kg/m3]	viscosity [mPa·s]
288.15 K	980.34	0.741
298.15 K	972.18	0.67
308.15 K	963.46	0.609

CC1COC(=O)O1 (configuration not stated) [4-methyl-1,3-dioxolan-2-one]
[1]
Conditions	mass density [kg/m3]	viscosity [mPa·s]
288.15 K	1208.67	3.086
298.15 K	1197.58	2.5
308.15 K	1187.16	2.073

CC1COC(=O)O1 (configuration not stated) [4-methyl-1,3-dioxolan-2-one] + CC(=O)CC(C)=O
[2], x1 = 1
Conditions	mass density [kg/m3]	viscosity [mPa·s]
288.15 K	1208.67	3.086
298.15 K	1197.58	2.5
308.15 K	1187.16	2.073

C1CCOC1 [tetrahydrofuran]
[1]
Conditions	mass density [kg/m3]	viscosity [mPa·s]
288.15 K	892.93	0.508
298.15 K	881.96	0.462
308.15 K	870.85	0.426

C1CCOC1 [tetrahydrofuran] + CC1COC(=O)O1
[2], x2 = 0
Conditions	mass density [kg/m3]	viscosity [mPa·s]
288.15 K	892.93	0.508
298.15 K	881.96	0.462
308.15 K	870.85	0.426
